Reference: patent US20250382279A1, “COMPOUNDS AND METHODS FOR YAP/TEAD MODULATION AND INDICATIONS THEREFOR” (OPNA BIO SA, priority 2023, published 2025)

Test system: TEAD-dependent transcription
Assay: Inhibitor activity against TEAD-dependent transcription in a cell-based reporter assay (MSTO-211H+12XGTIIC luciferase)
Details: Homo sapiens; MSTO-211H+12XGTIIC cell line, 24 hours compound incubation, luminescence normalized to cell viability fluorescence; read-out: MSTO-211H GMean IC50 (uM) Cell Assay Reporter Cell Variant: TEAD
Excerpt: Determine Inhibitor Activity Against TEAD-Dependent Transcription in a Cell-Based Reporter Assay
The human mesothelioma cell line MSTO-211H was stably transfected with a pGL4.21 plasmid containing a synthetic promoter with 12 copies of the GTIIC TEAD response element that drives the expression of a luciferase reporter gene^1 using Lipofectamine transfection reagent (Thermno Fisher). Transfected cells were selected using puromycin and single cell clones expressing this construct (referred to as MSTO-211H+12XGTIIC) were generated by limiting dilution. MSTO-211H cells was characterized by genetic alterations in key components of the Hippo pathway^2, resulting in up-regulation of YAP/TEAD-mediated transcription. […] To evaluate TEAD inhibitors, the MSTO-211H+12XGTIIC cell line was seeded in a 96-well plate in 50 μL of culture media at 1×10^4 cells per well and incubated at 37° C. overnight. Serial dilutions of compounds (in total volume of 50 μL of culture media) were added to the cells and incubated at 37° C. for 24 hours. Each plate included cells treated with DMSO as high controls and cells treated with 20 μM of the reference compound K-975 (a known TEAD inhibitor)^3 as low controls. Cell viability was assayed by the addition of 25 μL of CellTiter-Fluor reagent (Promega) followed by a 30-minute incubation at 37° C. and quantification of the fluorescence signal (Ex400/Em505). Subsequently, luciferase expression was assayed by the addition of 25 μL of ONE-Glo reagent (Promega) followed by a 10-minute incubation at room temperature and quantification of the luminescence signal. The luminescence signal was normalized to the fluorescence signal to correct for any loss in cell viability over the 24-hour compound incubation period. The percentage of inhibition of normalized luminescence signal, indicative of compound-mediated inhibition of TEAD-dependent transcription, at individual compound concentrations relative to high and low controls was calculated. The data were analyzed by using nonlinear regression to generate IC50 values for individual compounds.

In the case of CS(=O)(=O)c1cccc(N2CCc3c(Oc4ccc(C(F)(F)F)cc4)cccc3C2=O)c1 [O-0001, 2-(3-(methylsulfonyl)phenyl)-5-(4-(trifluoromethyl)phenoxy)-3,4-dihydroisoquinolin-1(2H)-one], the IC50 is reported as 0.001 to 10 µM.
In the case of CS(=O)(=O)c1ccc(N2CCc3c(Oc4ccc(C(F)(F)F)cc4)cccc3C2=O)cc1 [O-0002, 2-(4-(methylsulfonyl)phenyl)-5-(4-(trifluoromethyl)phenoxy)-3,4-dihydroisoquinolin-1(2H)-one], the IC50 is reported as 0.001 to 10 µM.
Work on O=C1c2cccc(Oc3ccc(C(F)(F)F)cc3)c2CCN1c1cccc(C(F)(F)F)c1 [O-0003, 5-(4-(trifluoromethyl)phenoxy)-2-(3-(trifluoromethyl)phenyl)-3,4-dihydroisoquinolin-1(2H)-one] yielded an IC50 of 0.001 to 10 µM.
Compound O=C1c2cccc(Oc3ccc(C(F)(F)F)cc3)c2CCN1c1ccc(S(=O)(=O)C(F)(F)F)cc1 [O-0004, 5-(4-(trifluoromethyl)phenoxy)-2-(4-((trifluoromethyl)sulfonyl)phenyl)-3,4-dihydroisoquinolin-1(2H)-one] has an IC50 of 0.001 to 10 µM.
Compound O=C1c2cccc(Oc3ccc(C(F)(F)F)cc3)c2CCN1c1cccc(S(=O)(=O)C(F)(F)F)c1 [O-0005, 5-(4-(trifluoromethyl)phenoxy)-2-(3-((trifluoromethyl)sulfonyl)phenyl)-3,4-dihydroisoquinolin-1(2H)-one] has an IC50 of 0.001 to 10 µM.
For CS(=O)(=O)C1CC(N2CCc3c(Oc4ccc(C(F)(F)F)cc4)cccc3C2=O)C1 (centres unmarked) [O-0006, 2-(3-(methylsulfonyl)cyclobutyl)-5-(4-(trifluoromethyl)phenoxy)-3,4-dihydroisoquinolin-1(2H)-one], the IC50 was 0.001 to 10 µM.
CS(=O)(=O)c1nccc(N2CCc3c(Oc4ccc(C(F)(F)F)cc4)cccc3C2=O)n1 [O-0007, 2-(2-(methylsulfonyl)pyrimidin-4-yl)-5-(4-(trifluoromethyl)phenoxy)-3,4-dihydroisoquinolin-1(2H)-one] gave an IC50 of 0.001 to 10 µM.
With Nc1ccc(N2CCc3c(Oc4ccc(C(F)(F)F)cc4)cccc3C2=O)cc1 [O-0010, 2-(4-aminophenyl)-5-(4-(trifluoromethyl)phenoxy)-3,4-dihydroisoquinolin-1(2H)-one] the IC50 was 0.001 to 10 µM.
Work on Nc1cccc(N2CCc3c(Oc4ccc(C(F)(F)F)cc4)cccc3C2=O)c1 [O-0011, 2-(3-aminophenyl)-5-(4-(trifluoromethyl)phenoxy)-3,4-dihydroisoquinolin-1(2H)-one] yielded an IC50 of 0.001 to 10 µM.
C=CC(=O)Nc1cccc(N2CCc3c(Oc4ccc(C(F)(F)F)cc4)cccc3C2=O)c1 [O-0012, N-(3-(1-oxo-5-(4-(trifluoromethyl)phenoxy)-3,4-dihydroisoquinolin-2(1H)-yl)phenyl)acrylamide] gave an IC50 of 0.001 to 10 µM.
For C=CC(=O)Nc1ccc(N2CCc3c(Oc4ccc(C(F)(F)F)cc4)cccc3C2=O)cc1 [O-0013, N-(4-(1-oxo-5-(4-(trifluoromethyl)phenoxy)-3,4-dihydroisoquinolin-2(1H)-yl)phenyl)acrylamide], the IC50 was 0.001 to 10 µM.
In the case of O=C1c2cccc(Oc3ccc(C(F)(F)F)cc3)c2CCN1c1ccc2nc(C(F)(F)F)sc2c1 [O-0014, 2-(2-(trifluoromethyl)benzo[d]thiazol-6-yl)-5-(4-(trifluoromethyl)phenoxy)-3,4-dihydroisoquinolin-1(2H)-one], the IC50 is reported as 0.001 to 10 µM.
O=C1c2cccc(Oc3ccc(C(F)(F)F)cc3)c2CCN1c1ccc2nc(C(F)(F)F)[nH]c2c1 [O-0016, 2-(2-(trifluoromethyl)-1H-benzo[d]imidazol-6-yl)-5-(4-(trifluoromethyl)phenoxy)-3,4-dihydroisoquinolin-1(2H)-one] gave an IC50 of 0.001 to 10 µM.
With N#Cc1nc2ccc(N3CCc4c(Oc5ccc(C(F)(F)F)cc5)cccc4C3=O)cc2o1 [O-0017, 6-(1-oxo-5-(4-(trifluoromethyl)phenoxy)-3,4-dihydroisoquinolin-2(1H)-yl)benzo[d]oxazole-2-carbonitrile] the IC50 was 0.001 to 10 µM.
With CS(=O)(=O)N1CCC(N2CCc3c(Oc4ccc(C(F)(F)F)cc4)cccc3C2=O)CC1 [O-0018, 2-(1-(methylsulfonyl)piperidin-4-yl)-5-(4-(trifluoromethyl)phenoxy)-3,4-dihydroisoquinolin-1(2H)-one] the IC50 was 0.001 to 10 µM.
O=C1c2cccc(Oc3ccc(C(F)(F)F)cc3)c2CCN1c1ccnc(S(=O)(=O)C(F)(F)F)n1 [O-0019, 5-(4-(trifluoromethyl)phenoxy)-2-(2-((trifluoromethyl)sulfonyl)pyrimidin-4-yl)-3,4-dihydroisoquinolin-1(2H)-one] gave an IC50 of 0.001 to 10 µM.
O=C1c2cccc(Oc3ccc(C(F)(F)F)cc3)c2CCN1C1CCN(S(=O)(=O)C(F)(F)F)CC1 [O-0020, 5-(4-(trifluoromethyl)phenoxy)-2-(1-((trifluoromethyl)sulfonyl)piperidin-4-yl)-3,4-dihydroisoquinolin-1(2H)-one] showed an IC50 of 0.001 to 10 µM.
Compound CS(=O)(=O)N1CCCC(N2CCc3c(Oc4ccc(C(F)(F)F)cc4)cccc3C2=O)C1 (centres unmarked) [O-0022, 2-(1-(methylsulfonyl)piperidin-3-yl)-5-(4-(trifluoromethyl)phenoxy)-3,4-dihydroisoquinolin-1(2H)-one] has an IC50 of 0.001 to 10 µM.
For CS(=O)(=O)N1CCC(N2CCc3c(Oc4ccc(C(F)(F)F)cc4)cccc3C2=O)C1 (centres unmarked) [O-0027, 2-(1-(methylsulfonyl)pyrrolidin-3-yl)-5-(4-(trifluoromethyl)phenoxy)-3,4-dihydroisoquinolin-1(2H)-one], the IC50 was 0.001 to 10 µM.
For CS(=O)(=O)c1cccc(N2CCc3ccc(Oc4ccc(C(F)(F)F)cc4)cc3C2=O)n1 [O-0031, 2-(6-(methylsulfonyl)pyridin-2-yl)-7-(4-(trifluoromethyl)phenoxy)-3,4-dihydroisoquinolin-1(2H)-one], the IC50 was 0.001 to 10 µM.
O=C1c2cc(Oc3ccc(C(F)(F)F)cc3)ccc2CCN1c1cccc(S(=O)(=O)C(F)(F)F)n1 [O-0032, 7-(4-(trifluoromethyl)phenoxy)-2-(6-((trifluoromethyl)sulfonyl)pyridin-2-yl)-3,4-dihydroisoquinolin-1(2H)-one] showed an IC50 of 0.001 to 10 µM.
Compound CS(=O)(=O)c1ccnc(N2CCc3ccc(Oc4ccc(C(F)(F)F)cc4)cc3C2=O)c1 [O-0033, 2-(4-(methylsulfonyl)pyridin-2-yl)-7-(4-(trifluoromethyl)phenoxy)-3,4-dihydroisoquinolin-1(2H)-one] has an IC50 of 0.001 to 10 µM.
For O=C1c2cc(Oc3ccc(C(F)(F)F)cc3)ccc2CCN1c1cccc(S(=O)(=O)C(F)(F)F)c1 [O-0035, 7-(4-(trifluoromethyl)phenoxy)-2-(3-((trifluoromethyl)sulfonyl)phenyl)-3,4-dihydroisoquinolin-1(2H)-one], the IC50 was 0.001 to 10 µM.
CS(=O)(=O)c1nccc(N2CCc3ccc(Oc4ccc(C(F)(F)F)cc4)cc3C2=O)n1 [O-0036, 2-(2-(methylsulfonyl)pyrimidin-4-yl)-7-(4-(trifluoromethyl)phenoxy)-3,4-dihydroisoquinolin-1(2H)-one] gave an IC50 of 0.001 to 10 µM.
With O=C1c2cc(Oc3ccc(C(F)(F)F)cc3)ccc2CCN1c1cccc(-c2nccs2)c1 [O-0038, 2-(3-(thiazol-2-yl)phenyl)-7-(4-(trifluoromethyl)phenoxy)-3,4-dihydroisoquinolin-1(2H)-one] the IC50 was 0.001 to 10 µM.
O=C1c2cc(Oc3ccc(C(F)(F)F)cc3)ccc2CCN1c1cccc(-c2cscn2)c1 [O-0039, 2-(3-(thiazol-4-yl)phenyl)-7-(4-(trifluoromethyl)phenoxy)-3,4-dihydroisoquinolin-1(2H)-one] was tested, and the IC50 was 0.001 to 10 µM.
With O=C1c2cc(Oc3ccc(C(F)(F)F)cc3)ccc2CCN1c1ccnc(S(=O)(=O)C(F)(F)F)n1 [O-0044, 7-(4-(trifluoromethyl)phenoxy)-2-(2-((trifluoromethyl)sulfonyl)pyrimidin-4-yl)-3,4-dihydroisoquinolin-1(2H)-one] the IC50 was 0.001 to 10 µM.
O=C1c2cc(Oc3ccc(C(F)(F)F)cc3)ccc2CCN1c1ccc2nc(C(F)(F)F)[nH]c2c1 [O-0045, 2-(2-(trifluoromethyl)-1H-benzo[d]imidazol-6-yl)-7-(4-(trifluoromethyl)phenoxy)-3,4-dihydroisoquinolin-1(2H)-one] gave an IC50 of 0.001 to 10 µM.
With O=C1c2cc(Oc3ccc(C(F)(F)F)cc3)ccc2CCN1c1ccc2nc(C(F)(F)F)sc2c1 [O-0046, 2-(2-(trifluoromethyl)benzo[d]thiazol-6-yl)-7-(4-(trifluoromethyl)phenoxy)-3,4-dihydroisoquinolin-1(2H)-one] the IC50 was 0.001 to 10 µM.
C=CC(=O)Nc1cncc(N2CCc3ccc(Oc4ccc(C(F)(F)F)cc4)cc3C2=O)c1 [O-0108, N-(5-(1-oxo-7-(4-(trifluoromethyl)phenoxy)-3,4-dihydroisoquinolin-2(1H)-yl)pyridin-3-yl)acrylamide] was tested, and the IC50 was 0.001 to 10 µM.
Nc1cncc(N2CCc3ccc(Oc4ccc(C(F)(F)F)cc4)cc3C2=O)c1 [O-0110, 2-(5-aminopyridin-3-yl)-7-(4-(trifluoromethyl)phenoxy)-3,4-dihydroisoquinolin-1(2H)-one] gave an IC50 of 0.001 to 10 µM.
Compound Nc1cccc(N2CCc3ccc(Oc4ccc(C(F)(F)F)cc4)cc3C2=O)n1 [O-0111, 2-(6-aminopyridin-2-yl)-7-(4-(trifluoromethyl)phenoxy)-3,4-dihydroisoquinolin-1(2H)-one] has an IC50 of 0.001 to 10 µM.
